Experimental data taken from US20250134855A1, “CO[…] AND METHODS OF USING SAME” (LYKOS THERAPEUTICS, INC., priority 2022, published 2025).
Read-outs that look alike come from different tables or passages of the source.

Assay: Study MPKF: plasma pharmacokinetics of MDMA and MDA, single 120 mg MDMA·HCl, fasted/fed
Type: in vivo, human
Conditions: for Tmax: median
Text: The MPKF was a Phase 1, open-label, randomized sequence, multi-dose, 2-period crossover food effect study in 16 healthy individuals. The MPKF study evaluated plasma concentrations of both MDMA and the active metabolite 3,4-methylenedioxyamphetamine (MDA). Summary PK Parameters of the preliminary data was based on interim analysis are presented in Table 12 Table 12 Table 12, and Table 13 Table 13 Table 13 for MDMA and MDA, respectively.
Participants were randomized to receive 1 of 2 conditions before the other: • Fasted Treatment: at least 10 hours of fasting followed by administration of MDMA HCl with 240 mL water. • Fed Treatment: at least 10 hours of fasting followed by a high-fat (approximately 50% of total caloric content of the meal) and high-calorie (approximately 800 to 1000 calories) meal was consumed within 30 minutes prior to IMP administration.
Participants remained at the clinical research unit (CRU) for each Dosing Session from the time of check-in on the night before dosing until discharge 48 hours after dosing for collection of serial blood samples for PK analysis and safety monitoring. IMP was administered on Day 1 following the treatment sequence to which the participant was randomized. An additional outpatient visit occurred 72 hours after dosing to collect a final PK sample, commensurate with the expected PK profiles of MDMA and MDA. Safety assessments were also performed at this visit.
The washout period between Dosing Sessions was at least 14 days. If a participant experienced emesis within 4 hours of administration, they were to be withdrawn from the study and replaced with a new participant. An End of Study Visit was performed 2 to 10 days after the completion of the final Dosing Session 72-hour follow-up. An informal interim analysis was planned to be conducted after at least 5 participants completed at least 1 Dosing Session to examine PK variability.
The API was a white crystalline powder of pharmaceutical quality, made according to current Good Manufacturing Practices (cGMP) for human use.
Participants: Sixteen healthy individuals were recruited for the study.
Intervention: The study was conducted as a Phase 1, open-label, randomized sequence, multi-dose, 2-period crossover food effect study. Each participant received multiple doses of MDMA, and plasma concentrations of both MDMA and the active metabolite MDA were measured.
Sample Collection: Blood samples were collected at various time points up to 72 hours after dosing. The samples were analyzed using validated liquid chromatography-tandem mass spectrometry (LC-MS/MS) methods.
Data Analysis: The summary PK parameters were presented in Table 12 for MDMA and Table 13 for MDA. The data were analyzed using descriptive statistics, and the mean and standard deviation were calculated. The results were compared between the two periods and analyzed for food effects. Statistical analyses were performed using appropriate methods, such as analysis of variance (ANOVA) and paired t-tests. A p-value of less than 0.05 was considered statistically significant.

[1] = Fasted (N = 15), 120 mg MDMA·HCl, geometric mean
[2] = Fed (N = 14), 120 mg MDMA·HCl, geometric mean

CC(N)Cc1ccc2c(c1)OCO2 (centres unmarked) [MDA, 3,4-methylenedioxyamphetamine]
higher plasma PK values in intermediate relative to normal CYP2D6 metabolizers (8 intermediate, 8 normal metabolizers): approximately 13% | Cmax, Geometric LSM (Fasted): 12.39 ng/mL | CL/F [1]: 302.8 L/h | Cmax [1]: 12 ng/mL | Tlag [1]: 0.6 h | Tmax (Fasted (N = 15), 120 mg MDMA·HCl): 6 h | Cmax, Geometric LSM (Fed): 11.92 ng/mL | CL/F [2]: 270.7 L/h | Cmax [2]: 12 ng/mL | Tlag [2]: 0.7 h | Tmax (Fed (N = 14), 120 mg MDMA·HCl): 7 h | Cmax (both sexes, human, plasma, po, single 120 mg dose of MDMA·HCl, fasting healthy males and females, read-out: Cmax): 13.3 ng/mL | AUC0-72, Geometric Mean Ratio (fed vs fasted): 0.98 | AUC0-inf, Geometric Mean Ratio (fed vs fasted): 0.99 | AUC0-t, Geometric Mean Ratio (fed vs fasted): 0.90 | Cmax, Geometric Mean Ratio (fed vs fasted): 0.96 | effect of food on exposure (high-fat meal vs fasting, single 120 mg MDMA·HCl): not affected by food | AUC0-inf of MDA relative to MDMA (human, plasma, oral, 120 mg): less than 10% | peak plasma levels of MDA relative to MDMA (human, plasma, oral, 120 mg): less than 10% | AUC(0-t) (human, plasma, oral, 120 mg, Fasted, read-out: AUC0-72, Geometric LSM): 312 ng·h/mL | AUC(0-inf) (human, plasma, oral, 120 mg, Fasted, read-out: AUC0-inf, Geometric LSM): 331 ng·h/mL | AUC(0-t) (human, plasma, oral, 120 mg, Fasted, read-out: AUC0-t, Geometric LSM): 282 ng·h/mL | AUC(0-t) (human, plasma, oral, 120 mg, Fed, read-out: AUC0-72, Geometric LSM): 306 ng·h/mL | AUC(0-inf) (human, plasma, oral, 120 mg, Fed, read-out: AUC0-inf, Geometric LSM): 328 ng·h/mL | AUC(0-t) (human, plasma, oral, 120 mg, Fed, read-out: AUC0-t, Geometric LSM): 254 ng·h/mL | Vd/F (human, plasma, po, 120 mg, Fasted (N = 15), 120 mg MDMA·HCl, geometric mean): 5520 L | AUC(0-t) (human, plasma, po, 120 mg, Fasted (N = 15), 120 mg MDMA·HCl, geometric mean, read-out: AUC0-72): 313 ng·h/mL | AUC(0-inf) (human, plasma, po, 120 mg, Fasted (N = 15), 120 mg MDMA·HCl, geometric mean, read-out: AUC0-inf): 330 ng·h/mL | AUC(0-t) (human, plasma, po, 120 mg, Fasted (N = 15), 120 mg MDMA·HCl, geometric mean, read-out: AUC0-t): 282 ng·h/mL | half-life (human, plasma, po, 120 mg, Fasted (N = 15), 120 mg MDMA·HCl, geometric mean, read-out: T1/2 (converted)): 12.6 h | Vd/F (human, plasma, po, 120 mg, Fed (N = 14), 120 mg MDMA·HCl, geometric mean): 5000 L | AUC(0-t) (human, plasma, po, 120 mg, Fed (N = 14), 120 mg MDMA·HCl, geometric mean, read-out: AUC0-72): 322 ng·h/mL | AUC(0-inf) (human, plasma, po, 120 mg, Fed (N = 14), 120 mg MDMA·HCl, geometric mean, read-out: AUC0-inf): 369 ng·h/mL | AUC(0-t) (human, plasma, po, 120 mg, Fed (N = 14), 120 mg MDMA·HCl, geometric mean, read-out: AUC0-t): 255 ng·h/mL | half-life (human, plasma, po, 120 mg, Fed (N = 14), 120 mg MDMA·HCl, geometric mean, read-out: T1/2 (converted)): 12.8 h | AUC(0-inf) (human, plasma, po, 120 mg, single 120 mg dose of MDMA·HCl, fasting, read-out: AUC0-inf): 374 ng·h/mL | half-life (human, plasma, po, 120 mg, single 120 mg dose of MDMA·HCl, fasting, read-out: t1/2 (converted)): 12.8 h | Tmax (single 120 mg dose of MDMA·HCl, fasting): 6 h
